Values after ≈ are worked out from the molar mass of the structure shown.

Broadly, the MIC is the smallest concentration in the dilution series that meets the test's criterion for growth inhibition. A low value points to a more susceptible organism.

Among the test systems are Escherichia coli 078; Streptococcus agalactiae; Escherichia coli UB1005; Escherichia coli ESBL; Escherichia coli ESBL 4; Candida albicans.
Experiment in all cases: ≥ marks a high value that may be exact or a test limit, other limits are often not marked, values filed in µg/mL are converted to µM
For assay [1], the system named is Salmonella enterica subsp. enterica serovar Pullorum ATCC 7913.
Assay [2] has as its system Staphylococcus aureus ATCC 25923.
Assay [3] has as its system Staphylococcus epidermidis ATCC 12228.
Assay [4] concerns Streptococcus agalactiae CICC 10465.
Assay [5] relates to Escherichia coli ATCC 25922.
The test system of assay [6] is Lacticaseibacillus rhamnosus 7469.
The subject of assay [7] is Streptococcus thermophilus YM-C.
Assay [8] deals with Staphylococcus aureus ATCC 29213.
Assay [9] relates to Salmonella enterica subsp. enterica serovar Typhimurium ATCC 14028.
For assay [10], the system named is Pseudomonas aeruginosa ATCC 27853.
Assay [11] concerns Salmonella enterica subsp. enterica serovar Typhimurium C77-31.
Assay [12] deals with Pseudomonas aeruginosa 910.
Assay [13] concerns Pseudomonas aeruginosa 253.
For assay [14], the system named is Pseudomonas aeruginosa PAO1.
Assay [15] deals with Pseudomonas aeruginosa 919.
In assay [16] the test system is Pseudomonas aeruginosa Ps4.
For assay [17], the system named is Escherichia coli ATCC 35218.
Assay [18] concerns Escherichia coli ATCC 11775.
For assay [19], the system named is Escherichia coli ATCC 43827.
The subject of assay [20] is Staphylococcus epidermidis.
Assay [21] concerns Salmonella enterica serovar Typhimurium.
Assay [22] concerns Enterococcus faecalis ATCC 29212.
The subject of assay [23] is Pseudomonas aeruginosa H103.

For the molecule `CC[C@H](C)[C@H](NC(=O)[C@H](CC(C)C)NC(=O)[C@@H](NC(=O)[C@@H](N)CC(=O)O)[C@@H](C)CC)C(=O)N[C@H](C(=O)N[C@H](C(=O)NCC(=O)NCC(=O)N[C@@H](CCCCN)C(=O)N[C@@H](CCCN=C(N)N)C(=O)N[C@@H](CCCN=C(N)N)C(=O)N[C@@H](CCCCN)C(=O)N[C@@H](CCCCN)C(=O)N[C@@H](CCCN=C(N)N)C(=O)N[C@@H](CCCN=C(N)N)C(=O)N[C@@H](CCCN=C(N)N)C(N)=O)C(C)C)[C@@H](C)CC` [DILIIVGGKRRKKRRR], the MIC in [1] is 8 µM (≈ 15.7 µg/mL); in assay [2], 4 µM (≈ 7.85 µg/mL); in [3], 8 µM (≈ 15.7 µg/mL); in assay [4], 2 µM (≈ 3.93 µg/mL); in [5], 4 µM (≈ 7.85 µg/mL); in [6], not below 64 µM. The MIC in [7] is not below 64 µM; with Escherichia coli 078, 8 µM (≈ 15.7 µg/mL); against Streptococcus agalactiae it was 4 µM (≈ 7.85 µg/mL); in the assay with Escherichia coli UB1005 it was 4 µM (≈ 7.85 µg/mL); in [8] it was 4 µM (≈ 7.85 µg/mL); in [9], 8 µM (≈ 15.7 µg/mL). In addition, the MIC in assay [10] was found to be 4 µM (≈ 7.85 µg/mL); in assay [11] it was 8 µM (≈ 15.7 µg/mL).

For `CC[C@H](C)[C@H](NC(=O)[C@H](CC(C)C)NC(=O)[C@@H](NC(=O)[C@@H](N)CC(=O)O)[C@@H](C)CC)C(=O)N[C@H](C(=O)N[C@H](C(=O)NCC(=O)NCC(=O)N[C@@H](CCCN=C(N)N)C(=O)N[C@@H](CCCN=C(N)N)C(N)=O)C(C)C)[C@@H](C)CC` [DILIIVGGRR], the MIC was not below 64 µM in assay [1]; more than 64 µM in assay [2]; more than 64 µM in [3]; not below 64 µM in assay [4]; more than 64 µM in [5]; not below 64 µM in assay [6]. Further, the MIC in assay [7] was not below 64 µM; with Escherichia coli 078, not below 64 µM; against Streptococcus agalactiae, not below 64 µM; with Escherichia coli UB1005, not below 64 µM; in assay [8] it was more than 64 µM; in [9], more than 64 µM. Besides, the values for the MIC in [10] and in assay [11] were more than 64 µM and not below 64 µM, respectively.

Regarding `CC[C@H](C)[C@H](NC(=O)[C@@H](N)Cc1ccccc1)C(=O)N[C@@H](CCCCN)C(=O)N[C@@H](Cc1c[nH]c2ccccc12)C(=O)N[C@@H](CCCN=C(N)N)C(=O)N[C@@H](CO)C(=O)N[C@@H](CCCN=C(N)N)C(=O)N[C@@H](Cc1c[nH]c2ccccc12)C(=O)N[C@@H](Cc1c[nH]c2ccccc12)C(=O)N[C@@H](CCCCN)C(=O)N[C@@H](CCCCN)C(=O)N[C@@H](CCCN=C(N)N)C(=O)N[C@H](C(N)=O)[C@@H](C)O` [FIKWRSRWWKKRT], the MIC in assay [12] is 8 µM (≈ 15 µg/mL); in assay [13] it was 16 µM (≈ 30 µg/mL); in assay [14], 4 µM (≈ 7.51 µg/mL); in [15] it was not below 32 µM.

`CC(C)C[C@H](NC(=O)[C@H](CCCN=C(N)N)NC(=O)[C@H](CC(C)C)NC(=O)[C@H](CC(N)=O)NC(=O)[C@H](CCCN=C(N)N)NC(=O)[C@H](CCC(N)=O)NC(=O)[C@H](Cc1c[nH]c2ccccc12)NC(=O)[C@@H](N)Cc1ccccc1)C(=O)N[C@@H](CCCN=C(N)N)C(=O)N[C@@H](CCCN=C(N)N)C(N)=O` [FWQRNLRLRR] yielded an MIC in assay [16] not below 173 µM.

Take `CC[C@H](C)[C@H](NC(=O)[C@H](CC(N)=O)NC(=O)[C@H](CCCN=C(N)N)NC(=O)[C@H](Cc1c[nH]c2ccccc12)NC(=O)[C@@H](N)Cc1ccccc1)C(=O)N[C@@H](CCCN=C(N)N)C(=O)N[C@@H](CCCCN)C(=O)N[C@H](C(=O)N[C@@H](CCCN=C(N)N)C(N)=O)C(C)C` [FWRNIRKVR]: in assay [16], the MIC is not below 196 µM.

In the case of `CC[C@H](C)[C@H](NC(=O)[C@H](Cc1ccc(O)cc1)NC(=O)[C@H](CCC(N)=O)NC(=O)[C@H](CC(C)C)NC(=O)[C@H](C)NC(=O)[C@H](CCCCN)NC(=O)[C@H](CCCCN)NC(=O)[C@H](CCSC)NC(=O)[C@@H](N)CCCCN)C(=O)N[C@@H](CCCCN)C(=O)N[C@@H](CC(C)C)C(=O)N[C@@H](CC(C)C)C(=O)N[C@@H](CCCCN)C(=O)N[C@@H](CCC(=O)O)C(N)=O` [KMKKALQYIKLLKE], the MIC in assay [17] was 25 µM (≈ 43.3 µg/mL); in assay [18] it was not below 100 µM; in assay [19], 25 µM (≈ 43.3 µg/mL); against Escherichia coli ESBL it was not below 100 µM; in assay [5], 100 µM (≈ 173 µg/mL); against Escherichia coli ESBL 4 it was not below 100 µM. In assay [10], this molecule displayed an MIC of more than 100 µM.

For the molecule `CC[C@H](C)[C@H](NC(=O)[C@H](Cc1ccc(O)cc1)NC(=O)[C@H](CCC(N)=O)NC(=O)[C@H](CC(C)C)NC(=O)[C@H](C)NC(=O)[C@H](CCCCN)NC(=O)[C@H](CCCCN)NC(=O)[C@H](CCSC)NC(=O)[C@H](CCCCN)NC(=O)[C@H](CCCCN)NC(=O)[C@H](CCCCN)NC(=O)[C@@H](N)CCCN=C(N)N)C(=O)N[C@@H](CCCCN)C(=O)N[C@@H](CC(C)C)C(=O)N[C@@H](CC(C)C)C(=O)N[C@@H](CCCCN)C(=O)N[C@@H](CCC(=O)O)C(N)=O` [RKKKMKKALQYIKLLKE], the MIC is 6 µM (≈ 12.9 µg/mL) in [17]; not below 100 µM in assay [18]; 3 µM (≈ 6.44 µg/mL) in assay [19]; 12.5 µM (≈ 26.8 µg/mL) in the assay with Escherichia coli ESBL; 25 µM (≈ 53.6 µg/mL) in [5]; not below 100 µM in the assay on Escherichia coli ESBL 4. This molecule came in with an MIC in assay [10] of 100 µM (≈ 215 µg/mL).

For `CC[C@H](C)[C@H](NC(=O)[C@H](CCCN=C(N)N)NC(=O)[C@H](C)NC(=O)[C@H](CCCN=C(N)N)NC(=O)[C@@H](N)CCCN=C(N)N)C(=O)N[C@H](C(=O)N[C@H](C(=O)N[C@H](C(=O)N[C@@H](CCCN=C(N)N)C(=O)N[C@H](C(=O)N[C@@H](C)C(=O)N[C@@H](CCCN=C(N)N)C(N)=O)C(C)C)[C@@H](C)CC)C(C)C)C(C)C` [RRARIVVIRVAR], the MIC in assay [2] is 10.9 µM (≈ 16 µg/mL); in assay [20], 1.37 µM (≈ 2 µg/mL); in assay [12] it was not below 32 µM; with Escherichia coli UB1005 it was 2.73 µM (≈ 4 µg/mL); in assay [21], 5.46 µM (≈ 7.99 µg/mL); in [22] it was 10.9 µM (≈ 16 µg/mL). The MIC in [13] was not below 32 µM; in assay [14], 32 µM (≈ 46.8 µg/mL); in [15], 16 µM (≈ 23.4 µg/mL); in assay [23], 5.46 µM (≈ 7.99 µg/mL); with Candida albicans, 5.46 µM (≈ 7.99 µg/mL).

For the origin of these results see DBAASP.
